Experimental data: patent publication US11214803B2, “Modulators of YAP1 expression” (Ionis Pharmaceuticals, Inc., priority 2019, dated 2022)
pIC50: −log10 of the molar value. Marks after values point to notes of the source that are not given here. Strand notation (5' to 3'): a small letter for the sugar, then the base; units joined by * are phosphorothioate-linked, units joined directly phosphodiester-linked; [ ] holds rarer units or linkages, { } end groups; capitals alone tell only the bases. k = constrained ethyl (cEt); [5mC] = 5-methylcytosine; d = 2'-deoxy (DNA)

How the values were obtained:
[1] = test system: Yap1 mRNA; test: Yap1 mRNA levels in SNU449 xenograft tumors, alone and in combination with sorafenib (second Example 30); type: in vivo, human; conditions: SNU449 xenograft mice, oligonucleotide 50 mg/kg, sorafenib 30 mg/kg orally, tumors collected day 119 post implantation, relative to PBS
Method: Modified oligonucleotides described in the studies above were tested in a hepatocellular carcinoma SNU449 xenograft tumor model. In addition to testing the modified oligonucleotide by itself, combination therapy with sorafenib was also tested. A control oligonucleotide 792169, described herein above, was also tested.
Five million SNU449 cells in 30% matrigel were implanted subcutaneously into the fatpads of female NOD.Cg-Prkdcscid II2rgtmlWjl/SzJ mice (from Jackson Laboratory) at 4-6 weeks of age. 43 days post implantation (when tumors had reached approximately 100 mm^3 in size), groups of eight mice each were administered with 50 mg/kg modified oligonucleotide daily for 10 days (loading dose), following which they were administered with 50 mg/kg modified oligonucleotide four times a week for one week, following which they were dosed with 50 mg/kg modified oligonucleotide thrice weekly until the end of the study. […] Animals were sacrificed, and tumors were collected on day 119 post implantation.
Yap1 mRNA knockdown in tumors was measured by RT-qPCR as previously described using the Human Yap1 primer-probe set RTS4814. Yap1 mRNA levels were normalized to actin-beta content, as measured by primer probe set RTS5002. Results are presented in the tables below as percent control of the amount of Yap1 mRNA relative to PBS treated animals (% control).

[2] = test system: Yap1 mRNA; test: Dose-dependent inhibition of human Yap1 in A-431 cells (Example 7, 10,000 cells per well, RTS36584); type: cell-based; conditions: free uptake
In short: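 A-431 cells at 10,000 per well received modified oligonucleotides by free uptake at several doses. After about 48 hours, Yap1 mRNA was quantified with primer-probe set RTS36584, normalized to RIBOGREEN total RNA and expressed as % untreated control. IC50 came from linear regression on a log/linear plot.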

[3] = rat, in vivo, sc, 50 mg/kg
Method: Male Sprague-Dawley rats were maintained on a 12-hour light/dark cycle and fed ad libitum with Purina normal rat chow. Groups of 4 Sprague-Dawley rats each were weekly injected subcutaneously with 50 mg/kg of Ionis oligonucleotide for 6 weeks (total 7 doses). Forty-eight hours after the last dose, the rats were euthanized; and organs, urine and plasma were harvested for further analysis.
To evaluate the effect of Ionis oligonucleotides on kidney function, urinary levels of total protein and creatinine were measured using an automated clinical chemistry analyzer (Hitachi Olympus AU400c, Melville, N.Y.).

[4] = test system: Yap1 mRNA; test: Antisense inhibition of human Yap1 in A-431 cells by cEt gapmers, single dose (Example 4, RTS4814); type: cell-based
In short: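 A-431 cells took up 3-10-3 cEt gapmers (16-mer, full phosphorothioate, 5-methylcytosines) by free uptake at 2,000 nM for about 48 h. Yap1 mRNA was quantified by qRT-PCR, normalized to total RNA (RIBOGREEN), and reported as % of untreated control.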

[5] = test system: Yap1 mRNA; test: Antisense inhibition of human Yap1 in A-431 cells by cEt gapmers, single dose (Example 3, RTS36584); type: cell-based
In short: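 Free uptake, 2,000 nM, ~48 h, A-431 cells. Gapmers: 16-mer 3-10-3 cEt wings, PS backbone, 5-MeC. Readout qRT-PCR, RiboGreen-normalized, % UTC.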

[6] = Tolerability in Sprague-Dawley rats, plasma chemistry markers (Example 20); type: in vivo; conditions: male Sprague-Dawley rats, 50 mg/kg s.c. weekly for 6 weeks (7 doses), 48 hours after last dose
Method: Sprague-Dawley rats are a multipurpose model used for safety and efficacy evaluations. The rats were treated with Ionis modified oligonucleotides from the studies described in the Examples above and evaluated for changes in the levels of various plasma chemistry markers.

Substance: CGCCGATAAGGTACAC (cEt gapmer, phosphorothioate backbone, further chemistry not given here) [ION 792169, reference compound]
- Yap1 mRNA levels in tumors [1]: 90 % control

Substance: 715487 (kA*kT*kT*dA*d[5mC]*dT*dT*d[5mC]*dA*dT*dA*dG*d[5mC]*kT*kT*kA) [compound 715487]
- Yap1 mRNA, % UTC ([2]; 15.6 nM, A-431 cells, 10,000 cells per well, approximately 48 hours): 77 % UTC
- Yap1 mRNA, % UTC ([2]; 62.5 nM, A-431 cells, 10,000 cells per well, approximately 48 hours): 44 % UTC
- Yap1 mRNA, % UTC ([2]; 4000.00 nM, A-431 cells, 10,000 cells per well, approximately 48 hours): 4 % UTC
- pIC50 ([2]; A-431 cells, approximately 48 hours, linear regression on log/linear plot): 7.00

Substance: 1198439 (AGTGTATGTCAGAAGA; sugar, 5-methylcytosine, phosphorothioate modifications, further chemistry not given here) [compound 1198439]
- URINE P/C ratio (total protein to creatinine ratio) [3]: 8*

Substance: 958499 (kA*kT*kT*dA*dG*dA*dG*dT*dA*dT*dG*dT*dG*kG*k[5mC]*kA) [Compound 958499]
- YAP1 (% UTC) ([4]; Table 14, A-431 cells, 5,000 cells per well, free uptake, 2,000 nM, approximately 48 hours, RTS4814, normalized to RIBOGREEN, Yap1 mRNA relative to untreated control, * = targets amplicon region of primer probe set): 2 % UTC
- YAP1 (% UTC) ([4]; Table 15, A-431 cells, 5,000 cells per well, free uptake, 2,000 nM, approximately 48 hours, RTS4814, normalized to RIBOGREEN, Yap1 mRNA relative to untreated control, * = targets amplicon region of primer probe set): 1 % UTC
- YAP1 (% UTC) ([4]; Table 16, A-431 cells, 5,000 cells per well, free uptake, 2,000 nM, approximately 48 hours, RTS4814, normalized to RIBOGREEN, Yap1 mRNA relative to untreated control cells): 2 % UTC
- YAP1 (% UTC) ([4]; Table 17, A-431 cells, 5,000 cells per well, free uptake, 2,000 nM, approximately 48 hours, RTS4814, normalized to RIBOGREEN, Yap1 mRNA relative to untreated control cells): 3 % UTC
- YAP1 (% UTC) ([5]; Table 12, A-431 cells, 5,000 cells per well, free uptake, 2,000 nM modified oligonucleotide, approx. 48 hours, RTS36584, normalized to RIBOGREEN, Yap1 mRNA relative to untreated control cells): 1 % UTC

Substance: 958499 (ATTAGAGTATGTGGCA; 3-10-3 cEt gapmer, further chemistry not given here) [compound 958499]
- Yap1 mRNA, % UTC ([2]; Table 61, 15.6 nM, A-431 cells 10,000 cells per well, 48 hours): 54 % UTC
- Yap1 mRNA, % UTC ([2]; Table 61, 62.5 nM, A-431 cells 10,000 cells per well, 48 hours): 12 % UTC
- Yap1 mRNA, % UTC ([2]; Table 61, 4000.00 nM, A-431 cells 10,000 cells per well, 48 hours): 1 % UTC
- pIC50 ([2]; Table 61, A-431 cells 10,000 cells per well): > 8.00
- YAP1 (% UTC) ([4]; Yap1 mRNA remaining as percent of untreated control, 3-10-3 cEt gapmers, A-431 cells, Table 36): 1 % UTC
- YAP1 (% UTC) ([4]; Yap1 mRNA remaining as percent of untreated control, 3-10-3 cEt gapmers, A-431 cells, Table 37): 2 % UTC
- YAP1 (% UTC) ([5]; Table 26, Yap1 mRNA by 3-10-3 cEt gapmers targeting SEQ ID NO.: 1, and 2, percent of untreated control): 1 % UTC
- YAP1 (% UTC) ([5]; Table 27, Yap1 mRNA by 3-10-3 cEt gapmers targeting SEQ ID NO.: 1, and 2, percent of untreated control): 2 % UTC
- YAP1 (% UTC) ([5]; Table 28, Yap1 mRNA as percent of untreated control, 3-10-3 cEt gapmers targeting SEQ ID NO.: 1, and 2): 2 % UTC
- YAP1 (% UTC) ([5]; Table 29, Yap1 mRNA as percent of untreated control, 3-10-3 cEt gapmers targeting SEQ ID NO.: 1, and 2): 2 % UTC
- YAP1 (% UTC) ([5]; Table 34, Yap1 mRNA as percent of untreated control, 3-10-3 cEt gapmers targeting SEQ ID NO: 1 and 2, single dose): 1 % UTC
- YAP1 (% UTC) ([5]; Table 35, Yap1 mRNA as percent of untreated control, 3-10-3 cEt gapmers targeting SEQ ID NO: 1 and 2, single dose): 2 % UTC
- ALB [6]: 2.78 g/dL
- ALT [6]: 61 U/L
- AST [6]: 109 U/L
- BUN [6]: 24 mg/dL
- TBIL [6]: 0.18 mg/dL

Substance: 1198440 (AAGTGTATGTCAGAAG; cEt, 2'-MOE, 5-methylcytosine, phosphorothioate modifications, further chemistry not given here) [compound 1198440]
- Yap1 mRNA levels in tumors [1]: 34 % control
- URINE P/C ratio (total protein to creatinine ratio) [3]: 9

Substance: 1076453 (GTAATATTGCAATCTG; 3-10-3 cEt gapmer, further chemistry not given here) [compound 1076453]
- ALB [6]: 3.14 g/dL
- ALT [6]: 47 U/L
- AST [6]: 77 U/L
- BUN [6]: 23 mg/dL
- TBIL [6]: 0.13 mg/dL
